Measured values taken from the supplement of paper PMC10307832.

What was measured:
Assay in all cases: relative viability (nuclei count vs DMSO), 5 days (fraction); higher = more cells survive
[1] = compound: O=C(C[C@H]1NCCC[C@@H]1O)Cn1cnc2cc(Br)c(Cl)cc2c1=O (racemic) [Halofuginone] + CC1(C)CCC(c2ccc(Cl)cc2)=C(CN2CCN(c3ccc(C(=O)NS(=O)(=O)c4ccc(N[C@H](CCN5CCOCC5)CSc5ccccc5)c(S(=O)(=O)C(F)(F)F)c4)cc3)CC2)C1 [Navitoclax] (partner 0.5 µM)
In short: (§1)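 Lung cancer cell lines were seeded in 1536-well plates and dosed by pin tool the next day, with either a single drug or a fixed anchor-drug dose combined with five library-drug doses (not always all listed) spaced in √10 steps. Five days later, one step fixed the cells and stained their nuclei (final 0.05% Triton X-100, 1% formaldehyde, 1 ug/ml Hoechst), and nuclei were counted on 4× images. Relative viability is the nuclei count in treated wells divided by the count in vehicle wells, and each value is the median of duplicate plates.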

[2] = compound: Nc1ncn([C@H]2C[C@H](O)[C@@H](CO)O2)c(=O)n1 [Decitabine] + Cc1nc(Nc2ncc(C(=O)Nc3c(C)cccc3Cl)s2)cc(N2CCN(CCO)CC2)n1 [Dasatinib] (partner 0.075 µM)
In short: as §1

[3] = compound: Nc1ncn([C@H]2C[C@H](O)[C@@H](CO)O2)c(=O)n1 [Decitabine] + O=C(c1cc(Cc2n[nH]c(=O)c3ccccc23)ccc1F)N1CCN(C(=O)C2CC2)CC1 [Olaparib] (partner 8 µM)
In short: as §1

[4] = compound: COc1cc2c(Oc3ccc4[nH]c(C)cc4c3F)ncnc2cc1OCCCN1CCCC1 [Cediranib] + COc1cc2c(Oc3ccc(NC(=O)C4(C(=O)Nc5ccc(F)cc5)CC4)cc3F)ccnc2cc1OCCCN1CCOCC1 [Foretinib] (partner 0.25 µM)
In short: as §1

Cell Line	relative viability ([1]; first compound 0.001 µM)	relative viability ([1]; first compound 0.003162 µM)	relative viability ([1]; first compound 0.01 µM)	relative viability ([1]; first compound 0.03162 µM)	relative viability ([1]; first compound 0.1 µM)	relative viability ([2]; first compound 0.04 µM)	relative viability ([2]; first compound 0.1265 µM)	relative viability ([2]; first compound 0.4 µM)	relative viability ([2]; first compound 1.265 µM)	relative viability ([2]; first compound 4 µM)	relative viability ([3]; first compound 0.04 µM)	relative viability ([3]; first compound 0.1265 µM)	relative viability ([3]; first compound 0.4 µM)	relative viability ([3]; first compound 1.265 µM)	relative viability ([3]; first compound 4 µM)	relative viability ([4]; first compound 0.04 µM)	relative viability ([4]; first compound 0.1265 µM)	relative viability ([4]; first compound 0.4 µM)	relative viability ([4]; first compound 1.265 µM)	relative viability ([4]; first compound 4 µM)
NCI-H1395	1.15	1.44	1.07	1.16	1.26	0.409	0.416	0.428	0.413	0.417	0.518	0.432	0.465	0.438	0.418	1.1	1.01	0.911	0.976	1.13
NCI-H1437	1.09	1.13	1.06	0.976	0.436	0.357	0.376	0.256	0.167	0.169	0.435	0.416	0.381	0.268	0.246	1.34	1.22	1.24	1.25	1.32
NCI-H1650	1.37	1.23	1.18	0.815	0.166	0.328	0.314	0.247	0.26	0.248	0.509	0.367	0.259	0.2	0.207	1.07	1.36	1.14	1.08	0.873
NCI-H1651	1.04	1.15	1.12	0.761	0.267	0.418	0.506	0.398	0.341	0.385	0.136	0.163	0.12	0.144	0.118	0.827	0.763	0.685	0.831	0.829
NCI-H1666	1.1	0.885	0.962	1.01	0.419	0.773	0.735	0.684	0.636	0.617	0.65	0.698	0.723	0.619	0.651	0.972	1.01	0.916	0.945	1
NCI-H1734	0.825	0.961	0.799	0.762	0.378	0.433	0.378	0.423	0.298	0.219	0.274	0.302	0.203	0.152	0.191	0.813	0.911	0.822	0.853	0.979
NCI-H1755	0.958	1.01	0.995	1.01	0.596	0.47	0.467	0.422	0.365	0.306	0.648	0.609	0.43	0.359	0.365	0.97	0.941	0.903	0.944	0.908
NCI-H1793	0.409	0.367	0.406	0.396	0.195	0.347	0.394	0.382	0.246	0.239	0.455	0.307	0.281	0.19	0.212	0.758	0.931	0.698	–	0.672
NCI-H1915	0.776	0.785	0.8	0.756	0.771	0.253	0.228	0.189	0.2	0.193	0.173	0.169	0.142	0.124	0.145	1.14	1.01	1.08	1.11	1.13
NCI-H1944	1.04	1.06	1.02	1.05	1.01	0.201	0.242	0.177	0.2	0.211	0.281	0.307	0.255	0.192	0.207	0.95	0.975	0.905	0.873	1
NCI-H1975	1.2	1.08	1.1	0.554	0.205	0.325	0.258	0.197	0.194	0.15	0.292	0.266	0.232	0.193	0.174	0.952	1.03	0.944	1.05	1.04
NCI-H1993	1.04	0.875	1.04	0.874	0.668	0.542	0.57	0.608	0.484	0.55	0.647	0.614	0.625	0.44	0.473	0.798	0.936	0.763	0.739	0.53
NCI-H2009	1.22	1.13	1.09	1.02	0.67	0.264	0.273	0.252	0.204	0.185	0.475	0.261	0.322	0.215	0.293	1.24	1.15	1.24	1.25	1.17
NCI-H2023	1.02	0.986	0.926	0.577	0.15	0.41	0.4	0.284	0.173	0.141	0.137	0.15	0.126	0.0911	0.0823	0.775	0.922	0.924	0.878	1.01
NCI-H2085	1.1	1.25	1.03	1.02	0.74	0.25	0.256	0.285	0.279	0.204	0.46	0.42	0.425	0.324	0.344	0.919	0.942	0.861	0.759	0.923
NCI-H2087	1.01	1.09	0.94	0.799	0.682	0.523	0.452	0.358	0.246	0.23	0.187	0.236	0.217	0.145	0.14	1.19	1.06	0.944	1.15	1.29
